This assay concerns the target T1, human Chk1 (GST-Chk1) (Homo sapiens, UniProt O14757).
T1 construct: made in house; host or cells: insect cells (baculovirus, Bac-to-Bac)
T1 sequence (O14757 1-476): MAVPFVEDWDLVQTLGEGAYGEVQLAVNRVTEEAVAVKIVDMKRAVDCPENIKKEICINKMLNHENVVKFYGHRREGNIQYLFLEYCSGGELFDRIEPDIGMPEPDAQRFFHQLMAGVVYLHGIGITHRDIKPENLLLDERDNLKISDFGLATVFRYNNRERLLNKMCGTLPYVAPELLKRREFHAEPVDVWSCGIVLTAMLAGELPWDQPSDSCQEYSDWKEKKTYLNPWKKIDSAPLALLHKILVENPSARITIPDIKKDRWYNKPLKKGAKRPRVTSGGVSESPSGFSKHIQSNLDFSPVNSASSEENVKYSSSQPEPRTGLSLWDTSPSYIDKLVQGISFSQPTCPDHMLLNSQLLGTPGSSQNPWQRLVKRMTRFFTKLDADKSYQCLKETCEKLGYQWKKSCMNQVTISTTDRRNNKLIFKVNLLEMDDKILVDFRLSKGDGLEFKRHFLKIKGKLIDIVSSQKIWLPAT
As to the kind of experiment: Chk1 FlashPlate kinase assay. It is filed as biochemical. The settings on record: 8.7 nM GST-Chk1, 1 uM ATP, 33P incorporation into peptide substrate. The gist of the method:
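GST-tagged human Chk1 (8.7 nM), baculovirus-expressed, with 3 uM biotinylated peptide, 1 uM ATP plus ^33P-γ-ATP, in MES/EGTA pH 8.0, DTT, Tween 20, 4% DMSO; 30 min at room temperature. EDTA-stopped; phosphopeptide captured on streptavidin FlashPlates and ^33P counted by scintillation.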

Turning to `Cc1n[nH]c2c1c(=O)n(CCNC(=O)C(Cc1ccccc1)NC(=O)OC(C)(C)C)c1ccccc21` (stereo not drawn) [Example 97, {1-[2-(3-Methyl-4-oxo-1,4-dihydro-pyrazolo[4,3-c]quinolin-5-yl)-ethylcarbamoyl]-2-phenyl-ethyl}-carbamic acid tert-butyl ester], the IC50 – broadly, the concentration needed to halve the response being measured – lay within 1 to 20 µM.

Molecule `Cc1[nH]nc2c1c(=O)n(CCCNC(=O)C(Cc1ccc(OC(C)(C)C)cc1)NC(=O)OC(C)(C)C)c1ccccc21` (stereo not drawn) [Example 98, {2-(4-tert-Butoxy-phenyl)-1-[3-(3-methyl-4-oxo-2,4-dihydro-pyrazolo[4,3-c]quinolin-5-yl)-propylcarbamoyl]-ethyl}-carbamic acid tert-butyl ester] gave an IC50 of 1 to 20 µM.

`Cc1[nH]nc2c1c(=O)n(CCCNC(=O)CCC(NC(=O)OC(C)(C)C)C(=O)OC(C)(C)C)c1ccccc21` (stereo not drawn) [Example 99, 2-tert-Butoxycarbonylamino-4-[3-(3-methyl-4-oxo-2,4-dihydro-pyrazolo[4,3-c]quinolin-5-yl)-propylcarbamoyl]-butyric acid tert-butyl ester] gave an IC50 of 1 to 20 µM.

Consider `Cc1[nH]nc2c1c(=O)n(CCCNC(=O)CCCNC(=O)OC(C)(C)C)c1ccccc21` [Example 100, {3-[3-(3-Methyl-4-oxo-2,4-dihydro-pyrazolo[4,3-c]quinolin-5-yl)-propylcarbamoyl]-propyl}-carbamic acid tert-butyl ester], for which the IC50 lay within 1 to 20 µM.

Consider `Cc1[nH]nc2c1c(=O)n(CCCNC(=O)CCNC(=O)OC(C)(C)C)c1ccccc21` [Example 101, {2-[3-(3-Methyl-4-oxo-2,4-dihydro-pyrazolo[4,3-c]quinolin-5-yl)-propylcarbamoyl]-ethyl}-carbamic acid tert-butyl ester], for which the IC50 fell in the range of 1 to 20 µM.

As to `Cc1[nH]nc2c1c(=O)n(CCCNC(=O)CNC(=O)OC(C)(C)C)c1ccccc21` [Example 102, {[3-(3-Methyl-4-oxo-2,4-dihydro-pyrazolo[4,3-c]quinolin-5-yl)-propylcarbamoyl]-methyl}-carbamic acid tert-butyl ester], the IC50 was 1 to 20 µM.

Take `Cc1[nH]nc2c1c(=O)n(CCCNC(=O)C1CCC(=O)N1)c1ccccc21` (stereo not drawn) [Example 103, 5-Oxo-pyrrolidine-2-carboxylic acid [3-(3-methyl-4-oxo-2,4-dihydro-pyrazolo[4,3-c]quinolin-5-yl)-propyl]-amide]: the concentration for half-maximal inhibition (IC50) is under 1 µM.

In turn, `Cc1[nH]nc2c1c(=O)n(CCCNC(=O)[C@@H](N)Cc1ccc(F)cc1)c1ccccc21` [Example 104, 2-Amino-3-(4-fluoro-phenyl)-N-[3-(3-methyl-4-oxo-2,4-dihydro-pyrazolo[4,3-c]quinolin-5-yl)-propyl]-propionamide] gave an IC50 of under 1 µM.

`Cc1n[nH]c2c1c(=O)n(CCNC(=O)C(N)Cc1ccccc1)c1ccccc21` (stereo not drawn) [Example 105, 2-Amino-N-[2-(3-methyl-4-oxo-1,4-dihydro-pyrazolo[4,3-c]quinolin-5-yl)-ethyl]-3-phenyl-propionamide] returned an IC50 of under 1 µM.

Turning to `Cc1[nH]nc2c1c(=O)n(CCCNC(=O)CCCN)c1ccccc21` [Example 106, 4-Amino-N-[3-(3-methyl-4-oxo-2,4-dihydro-pyrazolo[4,3-c]quinolin-5-yl)-propyl]-butyramide], the IC50 is under 1 µM.

Regarding `Cc1[nH]nc2c1c(=O)n(CCCNC(=O)C(N)Cc1ccc(OCc3ccccc3)cc1)c1ccccc21` (stereo not drawn) [Example 107, 2-Amino-3-(4-benzyloxy-phenyl)-N-[3-(3-methyl-4-oxo-2,4-dihydro-pyrazolo[4,3-c]quinolin-5-yl)-propyl]-propionamide], the IC50 was in the range of 1 to 20 µM.

On to `Cc1[nH]nc2c1c(=O)n(CCCNC(=O)C(N)Cc1ccc(O)cc1)c1ccccc21` (stereo not drawn) [Example 108, 2-Amino-3-(4-hydroxy-phenyl)-N-[3-(3-methyl-4-oxo-2,4-dihydro-pyrazolo[4,3-c]quinolin-5-yl)-propyl]-propionamide], for which the IC50 was under 1 µM.

In turn, `NCCCn1c(=O)c2c[nH]nc2c2cc(Cl)ccc21` [Example 109, 5-(3-Amino-propyl)-8-chloro-2,5-dihydro-pyrazolo[4,3-c]quinolin-4-one] registered a half-maximal inhibitory concentration (IC50) of under 1 µM.

Molecule `Cc1[nH]nc2c1c(=O)n(CCNS(=O)(=O)c1ccccc1)c1ccccc21` [Example 110, N-[2-(3-Methyl-4-oxo-2,4-dihydro-pyrazolo[4,3-c]quinolin-5-yl)-ethyl]-benzene sulfonamide] showed an IC50 of 1 to 20 µM.

`Cc1[nH]nc2c1c(=O)n(CCNC(=O)N1CCOCC1)c1ccccc21` [Example 112, Morpholine-4-carboxylic acid [2-(3-methyl-4-oxo-2,4-dihydro-pyrazolo[4,3-c]quinolin-5-yl)-ethyl]-amide] came in with an IC50 of 1 to 20 µM.

For `CCCCNc1ccc2c(c1)c1n[nH]c(C)c1c(=O)n2CCCN` [Example 116], the concentration for half-maximal inhibition (IC50) was under 1 µM.

Take `Cc1[nH]nc2c1c(=O)n(CCCNC(=O)C(N)Cc1ccc(Cl)cc1)c1ccccc21` (stereo not drawn) [Example 117, 2-Amino-3-(4-chloro-phenyl)-N-[3-(3-methyl-4-oxo-2,4-dihydro-pyrazolo[4,3-c]quinolin-5-yl)-propyl]-propionamide]: the IC50 is under 1 µM.

`Cc1[nH]nc2c1c(=O)n(CCCNC(=O)OCc1ccccc1Br)c1ccccc21` [Example 119, [3-(3-Methyl-4-oxo-2,4-dihydro-pyrazolo[4,3-c]quinolin-5-yl)-propyl]-carbamic acid 2-bromo-benzyl ester] had an IC50 of under 1 µM.

For `Cc1[nH]nc2c1c(=O)n(CCCN)c1ccc(N3CCCC3)cc21` [Example 120], the IC50 was under 1 µM.

On to `Cc1[nH]nc2c1c(=O)n(CCCN)c1ccc(N3CCN(C)CC3)cc21` [Example 121, 5-(3-Amino-propyl)-3-methyl-8-(4-methyl-piperazin-1-yl)-2,5-dihydro-pyrazolo[4,3-c]quinolin-4-one], for which the IC50 was under 1 µM.

Molecule `Cc1[nH]nc2c1c(=O)n(CCCNC(=O)CN)c1ccccc21` [Example 122, 2-Amino-N-[3-(3-methyl-4-oxo-2,4-dihydro-pyrazolo[4,3-c]quinolin-5-yl)-propyl]-acetamide] showed a 50% inhibitory concentration (IC50) of under 1 µM.

As for `Cc1[nH]nc2c1c(=O)n(CCCNC(=O)C(N)CCCCN)c1ccccc21` (stereo not drawn) [Example 123, 2,6-Diamino-hexanoic acid [3-(3-methyl-4-oxo-2,4-dihydro-pyrazolo[4,3-c]quinolin-5-yl)-propyl]-amide], the IC50 was under 1 µM.

As to `Cc1[nH]nc2c1c(=O)n(CCCNC(=O)CCN)c1ccccc21` [Example 124, 3-Amino-N-[3-(3-methyl-4-oxo-2,4-dihydro-pyrazolo[4,3-c]quinolin-5-yl)-propyl]-propionamide], the IC50 was under 1 µM.

Regarding `Cc1[nH]nc2c1c(=O)n(CCCNC(=O)c1ccc(OC(F)(F)F)cc1)c1ccccc21` [Example 125, N-[3-(3-Methyl-4-oxo-2,4-dihydro-pyrazolo[4,3-c]quinolin-5-yl)-propyl]-4-trifluoromethoxy-benzamide], the IC50 was under 1 µM.
